Experimental data from patent publication US10011578B2, “Compounds for stabilizing ryanodine receptors from aberrant levels of calcium release” (Rosalind Franklin University of Medicine and Science, priority 2013, dated 2018).
“Also recorded” adds a separate entry of the source.

What was measured:
[1] = tested on: RyR; experiment: Sub-chronic in vivo treatment of 3×Tg-AD mice, RyR-evoked calcium responses in CA1 neurons; design: species or system mouse; conditions: 10 mg/kg ip, 4 weeks, 10 mM caffeine on acute slices
Description: 3×Tg-AD, TgCRND8, PS1/APP, and nontransgenic (NonTg) J29/C57BL6 control mice were bred in-house. Adult male and female mice 3-5 months old were used. Animals were cared for and used in accordance with protocols approved by the Rosalind Franklin University of Medicine and Science Animal Care and Use Committee. Hippocampal brain slices (300 μm) were prepared as previously described (Briggs et al., Neurobiol. Aging, 2013, 34:1632-1643). Mice were anesthetized with halothane, decapitated, and the brain removed into ice-cold sucrose cutting solution (200 mM sucrose, 1.5 mM KCl, 0.5 mM CaCl2, 4.0 mM MgCl2, 1.0 mM KH2PO4, 25 mM NaHCO3, 10 mM Na-ascorbate, and 20 mM dextrose, equilibrated with 95% O2/5% CO2). Horizontal hippocampal slices were prepared in a Camden Instruments vibratome with the chamber filled with ice-cold sucrose cutting solution and then transferred to and maintained in standard artificial cerebrospinal fluid (aCSF; 130 mM NaCl, 2.5 mM KCl, 2.0 mM CaCl2, 1.2 mM MgSO4, 1.25 mM NaH2PO4, 25 mM NaHCO3, and 10 mM dextrose [305-310 mOsm], equilibrated with 95% O2/5% CO2, pH 7.3-7.4) at 32° C. for at least 1 hour before use. […] Membrane potentials were obtained in current-clamp mode, acquired at 10 kHz with a Digidata 1322 A-D converter and Multiclamp 700B amplifier, and recorded and analyzed using pClamp 10.2 (Molecular Devices). […]

[2] = Sub-chronic in vivo treatment of 3×Tg-AD mice, heart weight and body weight; design: species or system mouse; conditions: 10 mg/kg ip, 4 weeks
Description: Ca^2+ signaling and electrophysiological properties of CA1 pyramidal neurons were studied in hippocampal brain slices according to the protocols disclosed in Example 1. Briefly, 3×Tg-AD mice were treated with either saline (0.9%), CK013 or CK017 for four weeks (10 mg/kg; ip), and then acute hippocampal brain slice preparations were made for the purposes of performing whole cell patch clamp recordings and 2-photon calcium imaging in CA1 pyramidal neurons. The objective was to determine if our compounds could restore normal RyR-mediated calcium signaling in the AD mice and maintain normal membrane physiology.
Also, passive membrane properties such as resting membrane potential and membrane input resistance were not affected by these compounds. […] Additionally, there were no statistically significant differences in the ratio of heart weight:body weight among the treatment groups (Table 4; p>0.05), nor were there differences in absolute body weights or heart weights among the groups (data not shown; […]).

[3] = tested on: RyR; experiment: RyR-evoked calcium response in CA1 pyramidal neurons of hippocampal brain slices, acute incubation; type: cell-based, mouse; conditions: 3×Tg-AD hippocampal slices, caffeine, 10 μM, 1 hour incubation
Description: 3×Tg-AD, TgCRND8, PS1/APP, and nontransgenic (NonTg) J29/C57BL6 control mice were bred in-house. Adult male and female mice 3-5 months old were used. Animals were cared for and used in accordance with protocols approved by the Rosalind Franklin University of Medicine and Science Animal Care and Use Committee. […] Whole-cell patch-clamp recordings were conducted at room temperature (23° C.) in continuously superfused aCSF (1.5-2.0 mL/min). […] Hippocampal CA1 pyramidal neurons were identified visually via infrared differential interference contrast (IR-DIC) optics, and electrophysiologically by their passive membrane properties and spike frequency accommodation. […] Minianalysis 6.0.7 (Synaptosoft, Fort Lee, N.J.) was used to detect and measure spontaneous excitatory postsynaptic potential (sEPSP) events with a minimal amplitude of 0.2 mV and minimal area of 3 mV*msec.
(§1) Voltage-gated Ca^2+ channel (VGCC) responses were elicited by depolarization via current injected through the patch pipette with the current level adjusted to elicit a train of 8-10 spikes.

[4] = molecular target: T1, RyR (RyR2-expressing N2A cell line) (Mus musculus, UniProt E9Q401); experiment: RyR-evoked (caffeine) calcium response in N2A cells, 2-photon fura-2 imaging; type: cell-based; conditions: for effect on caffeine-stimulated Ca^2+ release compared with dantrolene: 10 μM; for Ca^2+ Inc (Ca^2+ increase over baseline): caffeine-stimulated, compounds tested at 10 μM
T1 construct: tested using a RyR2-expressing N2A cell line; host or cells: N2a (Neuro-2a) cells
Description: All incubations and washes were at 37° C. with 10% CO2.
Glass cover slips with fura 2-AM-filled N2a cells were placed in a submersion chamber on the stage of an upright Olympus BX51 microscope which is coupled to a 2-photon laser imaging system. […] Ca^2+ imaging of individual cells was accomplished using a custom-made video-rate 2-photon imaging system. Laser excitation was provided by 100 fs pulses at 780 nm (80 MHz) from a Ti:sapphire laser (Mai Tai Broadband, Spectra-Physics). The laser beam was scanned by a resonant galvanometer (General Scanning Lumonics), allowing rapid (7.9 kHz) bidirectional scanning in the x-axis, and by a conventional linear galvanometer in the y-axis, to provide a full-frame scan rate of 30 frames/s. The laser beam was focused onto the cells through an Olympus 40× water-immersion objective (numerical aperture 0.8). Emitted fluorescence light was detected by a wide-field photomultiplier (Electron Tubes) to derive a video signal that was captured and analyzed by Video Savant 5.0 software (10 Industries). Further analysis of background-corrected images was performed using MetaMorph software. For clarity, results are expressed as inverse ratios so that increases in [Ca^2+ correspond to increasing ratios. The % change is calculated as [(F0/ΔF)−1]*100 where F0 is the average resting fluorescence at baseline and ΔF is the decrease of fluorescence reflecting Ca^2+ release. Differences between treatment groups were assessed using two-way ANOVA and Scheffe post hoc analysis for significance (p<0.05). Somatic Ca^2+ responses in all cells in the field of view were analyzed (n=8-20), with the nucleus region excluded. All compounds were tested in triplicate.

[5] = Aqueous solubility at pH 7.4; type: physicochemical
[6] = Brain/plasma ratio, brain levels in vivo; conditions: for Kp: brain and plasma
[7] = Log P (Table 1); type: physicochemical
[8] = tested on: TG-CRND8 AD mice; experiment: Chronic dantrolene in TgCRND8 AD mice, CP13 phospho-tau immunostaining; type: in vivo, mouse; conditions: 10 mg/kg IP, 4 weeks
Description: Mice are deeply anesthetized with urethane, the thoracic cavity opened, and cannula inserted into the left ventricle of the heart, and a small hole cut into the right atrium. Ice cold saline (3 mL) and then 4% paraformaldehyde (5 mL), or 4% paraformaldehyde/1% glutaraldehyde are perfused through the circulatory system. Following this, the mice are decapitated with sharp scissors and the brain prepared for staining or microscopy.

[9] = tested on: AD mouse models (3×Tg-AD and PS1/APP); experiment: 4-week dantrolene treatment in AD mouse models (3×Tg-AD, APP/PS1): calcium, amyloid, synaptic integrity, RyR2 expression; type: in vivo
Description: 3×Tg-AD, TgCRND8, PS1/APP, and nontransgenic (NonTg) J29/C57BL6 control mice were bred in-house. Adult male and female mice 3-5 months old were used. Animals were cared for and used in accordance with protocols approved by the Rosalind Franklin University of Medicine and Science Animal Care and Use Committee. Hippocampal brain slices (300 μm) were prepared as previously described (Briggs et al., Neurobiol. Aging, 2013, 34:1632-1643). Mice were anesthetized with halothane, decapitated, and the brain removed into ice-cold sucrose cutting solution (200 mM sucrose, 1.5 mM KCl, 0.5 mM CaCl2, 4.0 mM MgCl2, 1.0 mM KH2PO4, 25 mM NaHCO3, 10 mM Na-ascorbate, and 20 mM dextrose, equilibrated with 95% O2/5% CO2). Horizontal hippocampal slices were prepared in a Camden Instruments vibratome with the chamber filled with ice-cold sucrose cutting solution and then transferred to and maintained in standard artificial cerebrospinal fluid (aCSF; 130 mM NaCl, 2.5 mM KCl, 2.0 mM CaCl2, 1.2 mM MgSO4, 1.25 mM NaH2PO4, 25 mM NaHCO3, and 10 mM dextrose [305-310 mOsm], equilibrated with 95% O2/5% CO2, pH 7.3-7.4) at 32° C. for at least 1 hour before use. Whole-cell patch-clamp recordings were conducted at room temperature (23° C.) in continuously superfused aCSF (1.5-2.0 mL/min). Patch pipettes (5-7 MO) were filled with intracellular solution (135 mM K-gluconate, 2.0 mM MgCl2, 4.0 mM Na2-ATP, 0.4 mM Na-GTP, 10 mM Na-phosphocreatine, 10 mM HEPES adjusted to pH 7.3 with KOH) plus 50 μM bis-fura-2 hexapotassium (Life Technologies) as fluorescent Ca^2+ sensor. Hippocampal CA1 pyramidal neurons were identified visually via infrared differential interference contrast (IR-DIC) optics, and electrophysiologically by their passive membrane properties and spike frequency accommodation. Membrane potentials were obtained in current-clamp mode, acquired at 10 kHz with a Digidata 1322 A-D converter and Multiclamp 700B amplifier, and recorded and analyzed using pClamp 10.2 (Molecular Devices). Minianalysis 6.0.7 (Synaptosoft, Fort Lee, N.J.) was used to detect and measure spontaneous excitatory postsynaptic potential (sEPSP) events with a minimal amplitude of 0.2 mV and minimal area of 3 mV*msec. See Chakroborty et al., 2012, J. Neurosci. 32(24):8341-53 for further experimental details.
as §1

[10] = chronic oral treatment (10+ months); cited from earlier work

T1 sequence (E9Q401 whole entry): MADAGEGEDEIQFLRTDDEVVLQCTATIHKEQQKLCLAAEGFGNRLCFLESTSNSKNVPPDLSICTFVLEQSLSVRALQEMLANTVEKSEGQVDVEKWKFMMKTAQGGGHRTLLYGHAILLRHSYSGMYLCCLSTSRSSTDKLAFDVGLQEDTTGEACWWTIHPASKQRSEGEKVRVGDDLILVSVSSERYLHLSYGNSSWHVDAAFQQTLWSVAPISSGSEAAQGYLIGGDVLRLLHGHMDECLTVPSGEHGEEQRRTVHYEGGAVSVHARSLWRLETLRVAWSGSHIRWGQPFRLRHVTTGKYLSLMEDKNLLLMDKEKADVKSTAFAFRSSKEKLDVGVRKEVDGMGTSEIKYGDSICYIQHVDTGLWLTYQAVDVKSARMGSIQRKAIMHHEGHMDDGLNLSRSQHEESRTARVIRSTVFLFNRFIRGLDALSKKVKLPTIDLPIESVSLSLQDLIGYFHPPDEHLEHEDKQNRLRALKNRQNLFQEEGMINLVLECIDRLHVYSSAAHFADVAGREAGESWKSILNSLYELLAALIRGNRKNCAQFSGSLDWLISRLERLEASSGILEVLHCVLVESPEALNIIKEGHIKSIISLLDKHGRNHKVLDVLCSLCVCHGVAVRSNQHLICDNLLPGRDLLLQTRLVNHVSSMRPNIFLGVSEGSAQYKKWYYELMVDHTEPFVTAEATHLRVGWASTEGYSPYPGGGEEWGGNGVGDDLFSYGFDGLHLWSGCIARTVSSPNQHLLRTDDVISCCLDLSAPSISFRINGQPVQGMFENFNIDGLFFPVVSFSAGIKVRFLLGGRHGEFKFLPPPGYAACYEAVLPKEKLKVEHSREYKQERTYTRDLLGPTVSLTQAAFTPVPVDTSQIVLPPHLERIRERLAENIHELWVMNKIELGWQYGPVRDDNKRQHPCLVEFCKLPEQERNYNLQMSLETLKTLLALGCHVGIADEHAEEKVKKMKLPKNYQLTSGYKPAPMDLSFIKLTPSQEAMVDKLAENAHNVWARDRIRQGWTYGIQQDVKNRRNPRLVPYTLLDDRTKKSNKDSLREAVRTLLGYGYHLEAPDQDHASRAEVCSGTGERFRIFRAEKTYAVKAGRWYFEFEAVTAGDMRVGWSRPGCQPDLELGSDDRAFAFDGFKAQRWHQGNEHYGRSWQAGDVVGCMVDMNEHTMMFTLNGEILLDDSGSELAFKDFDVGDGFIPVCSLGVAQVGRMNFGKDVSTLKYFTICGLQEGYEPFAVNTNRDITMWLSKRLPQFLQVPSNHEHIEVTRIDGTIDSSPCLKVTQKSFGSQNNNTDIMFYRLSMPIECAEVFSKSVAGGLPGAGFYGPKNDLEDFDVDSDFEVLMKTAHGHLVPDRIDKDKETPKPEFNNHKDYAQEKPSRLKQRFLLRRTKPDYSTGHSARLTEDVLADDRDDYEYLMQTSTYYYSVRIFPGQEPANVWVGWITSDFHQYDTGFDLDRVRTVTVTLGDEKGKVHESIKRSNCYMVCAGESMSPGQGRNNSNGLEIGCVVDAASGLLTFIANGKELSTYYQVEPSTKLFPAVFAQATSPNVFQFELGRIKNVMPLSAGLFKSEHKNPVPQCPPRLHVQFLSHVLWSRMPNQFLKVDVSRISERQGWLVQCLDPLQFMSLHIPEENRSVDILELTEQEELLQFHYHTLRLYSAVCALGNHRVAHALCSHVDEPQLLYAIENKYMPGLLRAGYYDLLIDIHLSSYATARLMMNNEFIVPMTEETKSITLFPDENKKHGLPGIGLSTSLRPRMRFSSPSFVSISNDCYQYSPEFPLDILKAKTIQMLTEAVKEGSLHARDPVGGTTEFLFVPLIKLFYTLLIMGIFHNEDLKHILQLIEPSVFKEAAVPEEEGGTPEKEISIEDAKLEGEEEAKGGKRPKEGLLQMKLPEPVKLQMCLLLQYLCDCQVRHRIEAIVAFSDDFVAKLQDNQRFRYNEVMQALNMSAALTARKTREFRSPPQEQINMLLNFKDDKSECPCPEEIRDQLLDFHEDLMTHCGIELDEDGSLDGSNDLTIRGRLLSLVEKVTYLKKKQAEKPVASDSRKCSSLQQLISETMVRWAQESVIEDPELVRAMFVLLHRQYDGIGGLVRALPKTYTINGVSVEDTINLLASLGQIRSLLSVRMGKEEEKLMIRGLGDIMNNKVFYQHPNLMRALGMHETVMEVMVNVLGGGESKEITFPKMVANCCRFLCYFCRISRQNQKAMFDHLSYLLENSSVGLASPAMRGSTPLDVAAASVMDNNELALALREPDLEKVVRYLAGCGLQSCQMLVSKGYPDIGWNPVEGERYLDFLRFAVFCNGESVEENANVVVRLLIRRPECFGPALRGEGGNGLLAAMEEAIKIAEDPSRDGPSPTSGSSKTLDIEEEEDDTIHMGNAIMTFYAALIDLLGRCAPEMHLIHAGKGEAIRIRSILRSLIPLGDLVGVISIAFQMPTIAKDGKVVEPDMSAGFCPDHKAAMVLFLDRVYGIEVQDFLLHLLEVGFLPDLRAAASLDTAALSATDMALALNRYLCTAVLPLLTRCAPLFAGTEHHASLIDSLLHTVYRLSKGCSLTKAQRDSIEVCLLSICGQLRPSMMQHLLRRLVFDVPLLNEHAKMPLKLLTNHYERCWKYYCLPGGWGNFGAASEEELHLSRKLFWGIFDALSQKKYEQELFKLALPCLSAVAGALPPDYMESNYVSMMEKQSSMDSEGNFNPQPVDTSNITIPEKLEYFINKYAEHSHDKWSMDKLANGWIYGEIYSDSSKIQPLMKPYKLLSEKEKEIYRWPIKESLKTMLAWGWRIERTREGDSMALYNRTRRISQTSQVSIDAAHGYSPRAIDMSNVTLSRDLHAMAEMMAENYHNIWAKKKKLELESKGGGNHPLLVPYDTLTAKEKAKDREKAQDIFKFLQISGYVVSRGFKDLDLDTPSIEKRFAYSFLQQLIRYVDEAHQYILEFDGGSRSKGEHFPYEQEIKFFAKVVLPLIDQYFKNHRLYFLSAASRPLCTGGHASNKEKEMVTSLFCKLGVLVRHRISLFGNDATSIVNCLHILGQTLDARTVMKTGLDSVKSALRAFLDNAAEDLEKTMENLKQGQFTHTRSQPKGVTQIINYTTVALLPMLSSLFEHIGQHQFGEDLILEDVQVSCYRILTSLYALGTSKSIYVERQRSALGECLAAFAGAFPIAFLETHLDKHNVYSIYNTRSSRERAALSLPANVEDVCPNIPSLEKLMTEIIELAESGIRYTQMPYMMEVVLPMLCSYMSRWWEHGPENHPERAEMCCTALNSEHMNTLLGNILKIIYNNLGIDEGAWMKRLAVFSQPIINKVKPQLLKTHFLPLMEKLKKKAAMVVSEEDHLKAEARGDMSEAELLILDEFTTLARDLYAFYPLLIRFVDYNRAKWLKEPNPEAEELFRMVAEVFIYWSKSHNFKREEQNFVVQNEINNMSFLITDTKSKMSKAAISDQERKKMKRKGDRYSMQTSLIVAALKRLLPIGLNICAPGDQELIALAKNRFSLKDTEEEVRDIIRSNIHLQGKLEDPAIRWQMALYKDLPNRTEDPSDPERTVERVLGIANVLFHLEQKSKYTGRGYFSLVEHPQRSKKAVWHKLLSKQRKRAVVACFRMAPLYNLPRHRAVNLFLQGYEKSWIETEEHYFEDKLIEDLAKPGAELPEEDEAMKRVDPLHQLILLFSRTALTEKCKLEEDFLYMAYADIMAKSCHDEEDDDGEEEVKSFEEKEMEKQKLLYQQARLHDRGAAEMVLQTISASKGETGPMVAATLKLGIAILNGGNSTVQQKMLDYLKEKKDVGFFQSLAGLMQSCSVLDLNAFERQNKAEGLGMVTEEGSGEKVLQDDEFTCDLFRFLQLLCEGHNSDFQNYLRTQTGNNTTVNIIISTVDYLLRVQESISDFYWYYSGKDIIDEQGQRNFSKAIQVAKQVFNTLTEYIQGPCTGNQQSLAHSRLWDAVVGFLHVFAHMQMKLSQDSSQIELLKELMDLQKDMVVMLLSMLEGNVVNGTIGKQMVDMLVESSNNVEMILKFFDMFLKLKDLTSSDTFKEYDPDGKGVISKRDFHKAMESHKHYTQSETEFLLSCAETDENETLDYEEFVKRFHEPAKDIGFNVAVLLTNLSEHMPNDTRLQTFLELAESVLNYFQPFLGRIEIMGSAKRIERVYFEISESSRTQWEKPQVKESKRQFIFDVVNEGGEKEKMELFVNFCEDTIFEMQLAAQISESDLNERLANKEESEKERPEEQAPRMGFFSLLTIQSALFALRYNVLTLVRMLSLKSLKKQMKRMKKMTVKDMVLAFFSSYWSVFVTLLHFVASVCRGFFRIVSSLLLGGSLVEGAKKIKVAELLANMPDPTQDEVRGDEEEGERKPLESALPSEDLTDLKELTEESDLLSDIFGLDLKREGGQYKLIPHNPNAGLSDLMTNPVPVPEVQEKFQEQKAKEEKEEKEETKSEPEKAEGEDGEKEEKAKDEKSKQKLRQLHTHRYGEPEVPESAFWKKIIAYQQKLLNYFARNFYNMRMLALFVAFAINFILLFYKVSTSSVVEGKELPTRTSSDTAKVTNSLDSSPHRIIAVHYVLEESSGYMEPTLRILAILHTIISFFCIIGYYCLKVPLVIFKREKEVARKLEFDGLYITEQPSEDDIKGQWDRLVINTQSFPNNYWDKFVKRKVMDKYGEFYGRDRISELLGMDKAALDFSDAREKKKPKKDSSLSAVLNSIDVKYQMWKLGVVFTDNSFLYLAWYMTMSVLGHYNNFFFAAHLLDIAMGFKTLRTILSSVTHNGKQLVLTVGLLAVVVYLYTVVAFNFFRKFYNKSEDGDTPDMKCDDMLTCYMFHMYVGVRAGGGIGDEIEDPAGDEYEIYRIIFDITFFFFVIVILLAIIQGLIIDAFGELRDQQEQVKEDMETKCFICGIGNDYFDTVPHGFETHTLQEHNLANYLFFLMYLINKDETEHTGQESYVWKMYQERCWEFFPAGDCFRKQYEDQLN

| Compound | effect on caffeine-stimulated Ca^2+ release compared with dantrolene [4] | Ca^2+ Inc (Ca^2+ increase over baseline) [4] [fold] | logP [7] | other results |
| --- | --- | --- | --- | --- |
| O=C(Cc1ccccc1)N/N=C/c1ccc(-c2ccccc2)o1 [CK013] |  |  |  | RyR-evoked calcium responses after chronic treatment [1]: not different from the NonTg control responses; also recorded: not different from the control NonTg saline treated mice; Ratio of heart weight:body weight [2]: 4.06 × 10^−3; RyR-evoked calcium response in AD neurons [3]: normalized aberrant RyR-evoked calcium signals; also recorded: significantly reduced to within physiological levels |
| O=C(N/N=C/c1ccc(-c2ccc(Cl)cc2)o1)N/N=C/c1ccc(-c2ccc(Cl)cc2)o1 [CK017] |  |  |  | RyR-evoked calcium responses after chronic treatment [1]: not different from the NonTg control responses; also recorded: not different from the control NonTg saline treated mice; Ratio of heart weight:body weight [2]: 3.6 × 10^−3; RyR-evoked calcium response in AD neurons [3]: normalized aberrant RyR-evoked calcium signals; also recorded: significantly reduced to within physiological levels |
| O=C1CN(/N=C/c2ccc(-c3ccccc3)o2)C(=O)N1 [RD05] | block calcium release to a greater degree than dantrolene; also recorded: comparable or superior effects on Ca^2+ release | 1.43 | 1.8 | solubility compared with dantrolene [5]: markedly improved solubility; CNS penetration compared with dantrolene [6]: markedly improved; brain levels relative to those of dantrolene [6]: > 50 times; Kp [6]: 0.5 |
| CC(=O)N/N=C/c1ccc(-c2cccc([N+](=O)[O-])c2)o1 [RD09] | block calcium release to a greater degree than dantrolene | 1.06 | 2.5 |  |
| CN1CCN(C(=O)N/N=C/c2ccc(-c3ccc([N+](=O)[O-])cc3Cl)o2)CC1 [RD10] |  | 4.25 | 3.4 |  |
| O=C(N/N=C/c1ccc(-c2cccc([N+](=O)[O-])c2)o1)c1ccccn1 [RD11] | block calcium release to a greater degree than dantrolene | 1.38 | 3 |  |
| Cc1c(-c2ccc(/C=N/NC(N)=O)o2)ccc([N+](=O)[O-])c1C [RD14] | comparable to dantrolene's effect; also recorded: comparable or superior effects on Ca^2+ release | 2.38 | 3.2 | solubility compared with dantrolene [5]: markedly improved solubility; CNS penetration compared with dantrolene [6]: markedly improved; Kp [6]: 1.6 |
| O=C(N/N=C/c1ccc(-c2ccc([N+](=O)[O-])cc2Cl)o1)Nc1ccccc1 [RD54] |  | >6 | 5.1 |  |
| O=C(N/N=C/c1ccc(-c2ccc(Br)cc2)o1)c1ccc([N+](=O)[O-])cc1 [RD77] |  | >6 | 5 |  |
| O=C(N/N=C/c1ccc(-c2ccc([N+](=O)[O-])cc2)o1)c1ccc(Cl)cc1Cl [RD83] |  | >6 | 5.5 |  |
| O=C(N/N=C/c1ccc(-c2cccc(Cl)c2Cl)o1)c1ccccn1 [RD91] |  | >6 | 4.4 |  |
| O=C1CN(/N=C/c2ccc(-c3ccc([N+](=O)[O-])cc3)o2)C(O)=N1 [dantrolene, 1-{[5-(4-nitrophenyl)-2-furyl]methylideneamino} imidazolidine-2,4-dione] |  | 1.96 |  | reduction of the evoked RyR-calcium response ([4]; caffeine (10 mM), pre-incubated 30 minutes): over 60%; phospho-tau (CP13) staining, dentate gyrus [8]: reduces phosphorylated tau; also recorded: significantly reduced; soluble and insoluble Aβ deposition ([9]; 3×Tg-AD and PS1/APP, 4-week treatment, 5-10 mg/kg): significantly reduced; synaptic integrity (synaptophysin/PSD-95 colocalization), synaptic transmission properties ([9]; AD mice, 4-week treatment): restored synaptic transmission properties and synaptic integrity; ER calcium responses (soma, dendrites, dendritic spines) ([9]; AD mice, 4-week treatment, 5-10 mg/kg): returned the exaggerated ER-Ca^2+ release in dendritic spines to NonTg levels; also recorded: normalizes this calcium response; RyR2 mRNA expression levels, hippocampus ([9]; AD-Tg mice, 10 mg/kg, 4 weeks): normalized expression levels of RyR2; reduction of beta amyloid levels (4G8 immunostaining) ([9]; hippocampus and cortex, 4-week treatment): 45%; amyloid pathology [10]: increase amyloid pathology |
